Legend:
[1] = physchem; conditions: water
[2] = background statement; cited from earlier work
[3] = cited from earlier work

CC(C)c1cccc(=O)c(O)c1 [hinokitiol]
solubility [1]: ≤ 5 mM | bactericidal and bacteriostatic activity [2]: strong | solubility in water at 25° C. [3]: about 0.12%
